Data as given in patent publication US20250136614A1, “2,7-SUBSTITUTED PYRROLO[2,1-F][1,2,4]TRIAZINE COMPOUND HAVING PROTEIN KINASE INHIBITORY ACTIVITY” (Magicbullettherapeutics Co., Ltd., priority 2021, published 2025).

Key:
Format in all cases: cell-based
MDA-MB-231 = test: Cancer cell growth inhibition (CellTiter-Glo, 72 hours); conditions: Homo sapiens, MDA-MB-231 cells, read-out: GI50s (μM) MDA-MB-231
Protocol: (§1) Seeding 3000 cells per well in a 96-well plate. After cell stabilization, treat the cells with compounds diluted in 0.5% DMSO at a ⅓ serial dilution and culture for 72 hours. Following treatment with CellTiter-Glo, luminescence is produced only in the presence of ATP, as luciferase degrades luciferin. Luminescence values were measured using Envision (PerkinElmer). Based on the measured luminescence values, the concentration of compounds causing cell death was calculated to determine the GI50 value.
(§2) The activity values were categorized into three levels • A: IC50<1 μM • B: 1 μM≤IC50<10 μM, • C: IC50≥10 μM

colo205 = test: as above; conditions: Homo sapiens, COLO 205, colo205 cells, read-out: GI50s (μM) colo205
Protocol: as §1, §2

HCT116 = test: as above; conditions: Homo sapiens, HCT-116, HCT116 cells, read-out: GI50s (μM) HCT116
Protocol: as §1, §2

H1975 = test: as above; conditions: Homo sapiens, NCI-H1975, H1975 cells, read-out: GI50s (μM) H1975
Protocol: as §1, §2

H358 = test: as above; conditions: Homo sapiens, NCI-H358, H358 cells, read-out: GI50s (μM) H358
Protocol: as §1, §2

H23 = test: as above; conditions: Homo sapiens, NCI-H23, H23 cells, read-out: GI50s (μM) H23
Protocol: as §1, §2

Ba/F3 FLT3 (ITD/D835Y) = target: T1, Ba/F3 FLT3 (ITD/D835Y) (Homo sapiens, UniProt P36888, D835Y, cells depend on it, form not given); test: Ba/F3 cell growth inhibition (CellTiter-Glo, 72 hours); conditions: read-out: Ba/F3 GI50s (μM) FLT3 (ITD/D835Y)
T1 sequence (P36888 1-993 D835Y): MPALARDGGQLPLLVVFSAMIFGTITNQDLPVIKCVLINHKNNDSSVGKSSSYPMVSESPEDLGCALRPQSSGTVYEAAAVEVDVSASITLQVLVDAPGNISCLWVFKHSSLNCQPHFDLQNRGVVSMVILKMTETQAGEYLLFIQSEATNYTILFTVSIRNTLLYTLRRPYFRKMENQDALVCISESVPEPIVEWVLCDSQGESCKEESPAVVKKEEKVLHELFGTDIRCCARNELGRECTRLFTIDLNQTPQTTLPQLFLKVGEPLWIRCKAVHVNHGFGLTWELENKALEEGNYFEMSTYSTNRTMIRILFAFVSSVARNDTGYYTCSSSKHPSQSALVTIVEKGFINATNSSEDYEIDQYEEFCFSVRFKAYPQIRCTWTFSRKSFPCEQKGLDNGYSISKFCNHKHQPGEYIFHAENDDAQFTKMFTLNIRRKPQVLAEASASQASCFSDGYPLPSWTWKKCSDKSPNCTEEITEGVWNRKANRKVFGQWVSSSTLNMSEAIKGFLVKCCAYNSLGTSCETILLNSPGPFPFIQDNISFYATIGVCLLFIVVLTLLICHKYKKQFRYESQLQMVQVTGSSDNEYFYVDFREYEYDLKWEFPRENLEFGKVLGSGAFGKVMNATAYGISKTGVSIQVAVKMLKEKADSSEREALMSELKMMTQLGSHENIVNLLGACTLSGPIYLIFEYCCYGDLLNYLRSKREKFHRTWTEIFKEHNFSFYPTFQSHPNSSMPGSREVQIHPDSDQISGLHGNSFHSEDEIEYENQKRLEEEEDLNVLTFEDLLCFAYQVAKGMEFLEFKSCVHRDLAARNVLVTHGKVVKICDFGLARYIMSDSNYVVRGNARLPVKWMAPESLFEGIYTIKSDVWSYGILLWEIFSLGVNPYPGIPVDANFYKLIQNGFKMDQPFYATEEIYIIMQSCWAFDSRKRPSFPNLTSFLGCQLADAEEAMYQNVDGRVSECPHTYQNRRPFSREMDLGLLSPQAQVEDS
Protocol: as §1, with “[…]” for “0.5%”
(§3) The activity values were categorized into three levels. • A: IC50<1 μM • B: 1 μM≤IC50<10 μM, • C: IC50≥10 μM

Ba/F3 parental = test: as above; conditions: Mus musculus, BaF3, Ba/F3 parental cells, read-out: Ba/F3 GI50s (μM) parental
Protocol: as §1, with “[…]” for “0.5%”
as §3

SMILES	IC50 (MDA-MB-231)	IC50 (colo205)	IC50 (HCT116)	IC50 (H1975)	IC50 (H358)	IC50 (H23)	GI50 (Ba/F3 FLT3 (ITD/D835Y))	IC50 (Ba/F3 parental)
COc1cccc(NC(=O)N2CCCn3cc(cn3)Nc3ncc4ccc(n4n3)-c3ccc(cc3)OCC2)c1 [Example 7, (2^1Z,4^4E)-N-(3-methoxyphenyl)-4^1H-11-oxa-3,8-diaza-2(7,2)-pyrrolo[2,1-f][1,2,4]triazina-4(4,1)-pyrazola-1(1,4)-benzenecycloundecaphane-8-carboxamide]	≥ 10 µM	≥ 10 µM	1 to 10 µM	1 to 10 µM	1 to 10 µM	1 to 10 µM	< 1 µM	≥ 10 µM
O=C1CCCCOc2ccc(cc2)-c2ccc3cnc(nn23)Nc2cnn(c2)C2CCN(CCCN1)CC2 [Example 26, (2^1Z,4^4E)-4^1H-15-oxa-3,9-diaza-2(7,2)-pyrrolo[2,1-f1][1,2,4]triazina-5(4,1)-piperidina-4(4,1)-pyrazola-1(1,4)-benzenacyclopentadecaphan-10-one]	≥ 10 µM	< 1 µM	< 1 µM	< 1 µM	< 1 µM	< 1 µM	< 1 µM	≥ 10 µM
O=C1CCCCOc2ccc(cc2)-c2ccc3cnc(nn23)Nc2cnn(c2)C2CCN1CC2 [Example 25, (2^1Z,4^4E)-4^1H-11-oxa-3-aza-2(7,2)-pyrrolo[2,1-f][1,2,4]triazina-5(4,1)-piperidina-4(4,1)-pyrazola-1(1,4)-benzenacycloundecaphan-6-one]	≥ 10 µM	≥ 10 µM	< 1 µM	≥ 10 µM	≥ 10 µM	1 to 10 µM	< 1 µM	≥ 10 µM
O=C1CCCCCCOc2ccc(cc2F)-c2ccc3cnc(nn23)Nc2ccc(cc2)OCCCN1 [Example 20, (Z)-13-fluoro-5,17-dioxa-3,9-diaza-2(7,2)-pyrrolo[2,1-f][1,2,4]triazina-1,4(1,4)-dibenzenacycloheptadecaphan-10-one]	≥ 10 µM	≥ 10 µM	≥ 10 µM	≥ 10 µM	≥ 10 µM	≥ 10 µM	1 to 10 µM	≥ 10 µM
O=C1CCCCCCOc2ccc(cc2)-c2ccc3cnc(nn23)Nc2ccc(cc2)OCCCN1 [Example 29, (Z)-5,17-dioxa-3,9-diaza-2(7,2)-pyrrolo[2,1-f][1,2,4]triazina-1,4(1,4)-dibenzenacycloheptadecaphan-10-one]	≥ 10 µM	1 to 10 µM	1 to 10 µM	1 to 10 µM	1 to 10 µM	1 to 10 µM	1 to 10 µM	≥ 10 µM
O=C1CCCCCCOc2ccc(cc2)-c2ccc3cnc(nn23)Nc2cnn(c2)C2CCN(CCCN1)CC2 [Example 27, (2^1Z,4^4E)-4^1H-17-oxa-3,9-diaza-2(7,2)-pyrrolo[2,1-f1][1,2,4]triazina-5(4,1)-piperidina-4(4,1)-pyrazola-1(1,4)-benzenacycloheptadecaphan-10-one]	1 to 10 µM	≥ 10 µM	≥ 10 µM	≥ 10 µM	1 to 10 µM	1 to 10 µM	< 1 µM	1 to 10 µM

Now from value to compound, other results behind:

IC50 (MDA-MB-231)	IC50 (colo205)	IC50 (HCT116)	IC50 (H1975)	IC50 (H358)	IC50 (H23)	GI50 (Ba/F3 FLT3 (ITD/D835Y))	SMILES	IC50 (Ba/F3 parental)
≥ 10 µM	≥ 10 µM	1 to 10 µM	1 to 10 µM	1 to 10 µM	1 to 10 µM	< 1 µM	Cc1ncsc1-c1ccc(CNC(=O)[C@@H]2C[C@@H](O)CN2C(=O)[C@@H](NC(=O)COCCN2CCN(c3ccc(Nc4ncc5ccc(-c6cccc(NS(C)(=O)=O)c6)n5n4)cc3)CC2)C(C)(C)C)cc1 [Example 83, (2S,4R)-1-((S)-3,3-dimethyl-2-(2-(2-(4-(4-((7-(3-(methanesulfonamido)phenyl)pyrrolo[2,1-f][1,2,4]triazin-2-yl)amino)phenyl)piperazin-1-yl)ethoxy)acetaamino)butanoyl)-4-hydroxy-N-(4-(4-methylthiazol-5-yl)benzyl)pyrrolidin-2-carboxamide]	1 to 10 µM
≥ 10 µM	1 to 10 µM	1 to 10 µM	1 to 10 µM	1 to 10 µM	1 to 10 µM	< 1 µM	O=C1COCCOc2ccc(cc2)-c2ccc3cnc(nn23)Nc2cnn(c2)CCCN1 [Example 35, (2^1Z,4^4E)-4^1H-11,14-dioxa-3,8-diaza-2(7,2)-pyrrolo[2,1-f1][1,2,4]triazina-4(4,1)-pyrazola-1(1,4)-benzenacyclotetradecaphan-9-one]	1 to 10 µM
≥ 10 µM	≥ 10 µM	1 to 10 µM	≥ 10 µM	≥ 10 µM	≥ 10 µM	< 1 µM	CS(=O)(=O)Nc1cccc(-c2ccc3cnc(Nc4ccc(N5CCN(CCCOc6cccc7c6C(=O)N(C6CCC(=O)NC6=O)C7=O)CC5)cc4)nn23)c1 (centres unmarked) [Example 40]	1 to 10 µM
≥ 10 µM	≥ 10 µM	1 to 10 µM	≥ 10 µM	≥ 10 µM	1 to 10 µM	< 1 µM	O=C1CCCCCCOc2ccc(cc2)-c2ccc3cnc(nn23)Nc2cnn(c2)CCCN1 [Example 37, (2^1Z,4^4E)-4^1H-16-oxa-3,8-diaza-2(7,2)-pyrrolo[2,1-f1][1,2,4]triazina-4(4,1)-pyrazola-1(1,4)-benzenacyclohexadecaphan-9-one]	≥ 10 µM
